Source: ChEMBL document CHEMBL1909046, “DrugMatrix in vitro pharmacology data”

How the values were obtained:
[1] = DRUGMATRIX: Sodium/nucleoside co-transporter radioligand binding (ligand: nitrobenzylthioinosine); format: cell membranes, Cavia porcellus, Dunkin-Hartley, Cerebral cortex, Membrane; conditions: Not Active = under 50% inhibition at 10 µM
[2] = DRUGMATRIX: Calcium Channel Type L, Benzothiazepine radioligand binding (ligand: [3H] Diltiazem); format: cell membranes, Rattus norvegicus, Wistar, Brain, Membrane; conditions: Not Active = under 50% inhibition at 10 µM
[3] = target: T1, C-X-C chemokine receptor type 2 (Homo sapiens, UniProt P25025); format: cell membranes, Membrane; conditions: cho-k1; further: in other assays of this panel Not Active means under 50% inhibition at 10 µM
T1 sequence (P25025 whole entry): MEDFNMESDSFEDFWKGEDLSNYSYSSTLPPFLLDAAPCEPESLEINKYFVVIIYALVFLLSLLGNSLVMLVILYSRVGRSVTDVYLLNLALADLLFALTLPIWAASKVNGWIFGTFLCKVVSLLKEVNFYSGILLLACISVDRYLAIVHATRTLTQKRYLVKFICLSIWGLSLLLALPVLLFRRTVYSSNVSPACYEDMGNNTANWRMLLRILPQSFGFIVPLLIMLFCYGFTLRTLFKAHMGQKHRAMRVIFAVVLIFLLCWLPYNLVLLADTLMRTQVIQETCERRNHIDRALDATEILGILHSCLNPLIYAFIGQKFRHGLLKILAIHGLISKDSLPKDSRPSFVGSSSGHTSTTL

[4] = DRUGMATRIX: Glutamate, NMDA, Phencyclidine radioligand binding (ligand: [3H] TCP); format: cell membranes, Rattus norvegicus, Wistar, Cerebral cortex, Membrane; conditions: Not Active = under 50% inhibition at 10 µM
[5] = target: T2, 3-hydroxy-3-methylglutaryl-coenzyme A reductase (Homo sapiens, UniProt P04035); set-up: species or system Escherichia coli;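 further: enzyme inhibition assay of HMG-CoA reductase using radiolabeled [14C]HMG-CoA as substrate; in other assays of this panel Not Active means under 50% inhibition at 10 µM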
T2 sequence (P04035 whole entry): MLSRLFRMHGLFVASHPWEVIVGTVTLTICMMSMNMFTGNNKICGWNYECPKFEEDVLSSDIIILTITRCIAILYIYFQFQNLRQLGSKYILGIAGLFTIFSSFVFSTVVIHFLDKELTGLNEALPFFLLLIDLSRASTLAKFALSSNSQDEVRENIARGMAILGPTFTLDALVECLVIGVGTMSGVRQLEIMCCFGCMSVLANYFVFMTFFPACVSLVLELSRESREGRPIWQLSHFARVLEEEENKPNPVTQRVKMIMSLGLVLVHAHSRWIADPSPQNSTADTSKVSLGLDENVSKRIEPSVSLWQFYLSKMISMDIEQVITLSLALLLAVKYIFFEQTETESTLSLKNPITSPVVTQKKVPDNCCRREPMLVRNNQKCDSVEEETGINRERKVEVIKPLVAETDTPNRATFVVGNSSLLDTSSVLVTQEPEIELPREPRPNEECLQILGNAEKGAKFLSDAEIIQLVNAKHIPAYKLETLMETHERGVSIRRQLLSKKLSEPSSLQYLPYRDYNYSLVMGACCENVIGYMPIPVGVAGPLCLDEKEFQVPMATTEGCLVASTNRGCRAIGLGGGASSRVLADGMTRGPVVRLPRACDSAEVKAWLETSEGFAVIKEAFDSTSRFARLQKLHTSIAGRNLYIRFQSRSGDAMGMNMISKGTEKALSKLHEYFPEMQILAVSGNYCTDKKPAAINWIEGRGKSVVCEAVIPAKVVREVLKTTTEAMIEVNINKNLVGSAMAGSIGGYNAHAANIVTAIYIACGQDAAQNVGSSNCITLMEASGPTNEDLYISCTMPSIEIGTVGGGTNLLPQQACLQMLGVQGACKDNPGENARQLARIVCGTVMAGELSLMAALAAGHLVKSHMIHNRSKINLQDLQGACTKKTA

[6] = target: T3, Muscarinic acetylcholine receptor M2 (Homo sapiens, UniProt P08172); format: cell membranes, CHO-K1, Membrane; conditions: cho-k1; further: in other assays of this panel Not Active means under 50% inhibition at 10 µM
T3 sequence (P08172 whole entry): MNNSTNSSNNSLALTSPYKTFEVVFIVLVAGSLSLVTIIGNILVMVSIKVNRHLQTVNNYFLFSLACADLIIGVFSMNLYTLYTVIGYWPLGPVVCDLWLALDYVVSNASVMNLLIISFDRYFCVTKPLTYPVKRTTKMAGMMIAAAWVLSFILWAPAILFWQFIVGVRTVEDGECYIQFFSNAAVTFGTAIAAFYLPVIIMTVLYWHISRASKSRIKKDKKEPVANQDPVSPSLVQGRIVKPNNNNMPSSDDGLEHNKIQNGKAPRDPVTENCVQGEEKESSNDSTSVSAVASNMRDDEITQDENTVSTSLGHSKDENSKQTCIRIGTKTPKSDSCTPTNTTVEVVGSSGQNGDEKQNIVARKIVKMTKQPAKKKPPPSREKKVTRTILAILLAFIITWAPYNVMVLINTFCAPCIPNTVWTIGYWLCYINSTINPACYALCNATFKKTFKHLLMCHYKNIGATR

CCN(CC)CCNC(=O)c1cc(S(C)(=O)=O)ccc1OC [TIAPRIDE]
Not Active: IC50 [1] | Ki [1] | IC50 [2] | Ki [2] | IC50 [3] | IC50 [4] | Ki [4] | IC50 [5] | IC50 [6]

Clc1ccccc1CN1CCc2sccc2C1 [TICLOPIDINE]
Not Active: IC50 [1] | Ki [1] | IC50 [2] | Ki [2] | IC50 [3] | IC50 [4] | Ki [4] | IC50 [5] | IC50 [6]

NC1CCN(c2nc3c(cc2F)c(=O)c(C(=O)O)cn3-c2ccc(F)cc2F)C1 (centres undefined) [TOSUFLOXACIN]
Not Active: IC50 [1] | Ki [1] | IC50 [2] | Ki [2] | IC50 [3] | IC50 [4] | Ki [4] | IC50 [5] | IC50 [6]

O=C(Nc1ccc(Br)cc1)c1cc(Br)cc(Br)c1O [TRIBROMSALAN]
Not Active: IC50 [1] | Ki [1] | IC50 [2] | Ki [2] | IC50 [3] | IC50 [4] | Ki [4] | IC50 [5] | IC50 [6]

CC(c1cc2ccccc2s1)N(O)C(N)=O (centres undefined) [ZILEUTON]
Not Active: IC50 [1] | Ki [1] | IC50 [2] | Ki [2] | IC50 [3] | IC50 [4] | Ki [4] | IC50 [5] | IC50 [6]

MANGANESE CHLORIDE ANHYDROUS
Not Active: IC50 [1] | Ki [1] | IC50 [2] | Ki [2] | IC50 [3] | Ki [3] | IC50 [4] | Ki [4] | IC50 [5] | Ki [5] | IC50 [6] | Ki [6]

SODIUM ORTHOVANAD
Not Active: IC50 [1] | Ki [1] | IC50 [2] | Ki [2] | IC50 [3] | Ki [3] | IC50 [4] | Ki [4] | IC50 [5] | Ki [5] | IC50 [6] | Ki [6]
